# In ChEMBL document CHEMBL1201862, “PubChem BioAssay data set” (2004):
# Activity calls are given as the source filed them.
# What was measured:
# [1] = target: T1, Neuropeptides B/W receptor type 1 (Homo sapiens, UniProt P48145); test: Fluorescence-based dose response cell-based high throughput screening assay to identify antagonists of the G-protein coupled receptor 7 (GPR7). [Related pubchem assays: 1952 (Screening assay (GPR7 antagonists).), 1880 (Summary AID.)]; type: functional
# T1 sequence (P48145 whole entry): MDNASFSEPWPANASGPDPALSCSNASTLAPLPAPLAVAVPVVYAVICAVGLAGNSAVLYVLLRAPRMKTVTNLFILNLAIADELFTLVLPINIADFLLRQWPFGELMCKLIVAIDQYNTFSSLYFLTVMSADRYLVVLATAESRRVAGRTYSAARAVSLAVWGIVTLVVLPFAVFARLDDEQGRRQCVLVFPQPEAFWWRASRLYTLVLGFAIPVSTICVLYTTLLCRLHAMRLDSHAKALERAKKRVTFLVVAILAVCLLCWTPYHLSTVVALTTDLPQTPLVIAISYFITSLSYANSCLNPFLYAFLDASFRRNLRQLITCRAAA
# [2] = target: Melanin-concentrating hormone receptor 1 (Homo sapiens, UniProt Q99705); test: Fluorescence-based counterscreen for antagonists of the G-protein coupled receptor 7 (GPR7): cell-based high throughput dose response assay to identify antagonists of the melanin-concentrating hormone receptor 1 (MCHR1).; type: functional
# Cytochrome P450 2C9 = Cytochrome P450 2C9 (Homo sapiens, UniProt P11712); details: Potency
# Cytochrome P450 2D6 = Cytochrome P450 2D6 (Homo sapiens, UniProt P10635); test: qHTS Assay for Inhibitors and Substrates of Cytochrome P450 2D6. [Related pubchem assays: 410 ]; type: ADME; details: read-out: Potency
# [3] = target: Peroxisome proliferator-activated receptor gamma/Nuclear receptor coactivator 2 (Homo sapiens, UniProt P37231); type: functional;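 further: agonist potency for raising coactivator recruitment to the receptor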
# [4] = target: Peroxisome proliferator-activated receptor gamma/Nuclear receptor coactivator 1 (Homo sapiens, UniProt P37231); type: functional;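 further: agonist potency as compounds enhance coactivator SRC-1 recruitment to PPARgamma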
# [5] = target: Peroxisome proliferator-activated receptor gamma/Nuclear receptor coactivator 3 (Homo sapiens, UniProt P37231); type: functional;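 further: agonist potency for raising coactivator recruitment to the receptor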
# Streptokinase A = target: T2, Streptokinase A (Streptococcus pyogenes serotype M1, UniProt P10520); test: viability-normalized secreted streptokinase activity reduction – plasminogen activation absorbance, OD405, dose response (AID 1914); type: functional, Streptococcus pyogenes M1 GAS;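 further: secreted streptokinase activity via plasminogen activation per viability signal from cell pellet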
# T2 sequence (P10520 whole entry): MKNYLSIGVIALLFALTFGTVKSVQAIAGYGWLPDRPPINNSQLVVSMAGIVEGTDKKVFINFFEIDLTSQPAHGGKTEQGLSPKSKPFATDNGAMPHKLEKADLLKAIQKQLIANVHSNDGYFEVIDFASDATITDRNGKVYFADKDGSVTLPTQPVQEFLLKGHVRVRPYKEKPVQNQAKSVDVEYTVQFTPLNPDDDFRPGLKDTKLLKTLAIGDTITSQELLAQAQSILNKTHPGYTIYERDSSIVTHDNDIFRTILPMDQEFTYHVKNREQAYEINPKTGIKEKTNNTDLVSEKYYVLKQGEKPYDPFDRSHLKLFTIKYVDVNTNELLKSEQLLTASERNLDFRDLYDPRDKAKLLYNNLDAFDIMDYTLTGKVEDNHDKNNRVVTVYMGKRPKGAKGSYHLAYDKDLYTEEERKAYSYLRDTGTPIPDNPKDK
# Streptococcus [6] = test: Luminescence Microorganism-Based Dose Response Follow up to Identify Compounds Cytotoxic to Streptococcus. [Related pubchem assays: 1677 (Project Summary), 1915, 1914, 1902 (Retest at Dose), 1900 (Counter Screen), 1662 (Primary HTS)]; type: functional, organism-based
# Leucine aminopeptidase = target: T3, Leucine aminopeptidase (Plasmodium falciparum 3D7, UniProt Q8IL11); test: P. falciparum M17LAP inhibitors, primary screen, biochemical, fluorogenic H-Leu-NHMec substrate, 1536-well (AID 1619); type: functional
# T3 sequence (Q8IL11 whole entry): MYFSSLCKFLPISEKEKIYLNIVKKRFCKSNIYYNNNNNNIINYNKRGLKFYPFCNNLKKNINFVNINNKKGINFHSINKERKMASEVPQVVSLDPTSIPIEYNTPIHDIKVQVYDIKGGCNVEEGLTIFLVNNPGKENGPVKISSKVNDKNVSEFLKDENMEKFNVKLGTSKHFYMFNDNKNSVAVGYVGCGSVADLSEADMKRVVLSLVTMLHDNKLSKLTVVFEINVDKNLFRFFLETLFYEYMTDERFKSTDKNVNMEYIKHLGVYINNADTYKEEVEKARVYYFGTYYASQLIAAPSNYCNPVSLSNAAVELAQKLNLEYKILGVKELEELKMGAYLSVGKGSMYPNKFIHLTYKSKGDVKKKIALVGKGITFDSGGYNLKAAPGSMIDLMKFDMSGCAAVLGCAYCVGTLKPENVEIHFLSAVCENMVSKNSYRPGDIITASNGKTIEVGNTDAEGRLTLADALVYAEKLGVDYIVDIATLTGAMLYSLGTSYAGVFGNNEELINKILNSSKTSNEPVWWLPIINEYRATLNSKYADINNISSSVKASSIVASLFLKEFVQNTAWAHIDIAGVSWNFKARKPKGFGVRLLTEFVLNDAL
# [7] = test system: Streptococcus sp. 'group A'; test: Streptococcus pyogenes SK(-)GAS viability under kanamycin – luminescence, BacTiterGlo, confirmation, counter-screen for streptokinase expression inhibitor project, dose response (AID 1900); type: functional, organism-based
# Streptococcus [8] = test: GAS UMAA2166 growth inhibition – luminescence, BacTiterGlo, counter-screen for streptokinase expression inhibitor project, dose response (AID 1915); type: functional, organism-based;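 further: potency for reduction of bacterial viability or growth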
# Chain of Cytochrome P450 2C9 (P11712 whole entry): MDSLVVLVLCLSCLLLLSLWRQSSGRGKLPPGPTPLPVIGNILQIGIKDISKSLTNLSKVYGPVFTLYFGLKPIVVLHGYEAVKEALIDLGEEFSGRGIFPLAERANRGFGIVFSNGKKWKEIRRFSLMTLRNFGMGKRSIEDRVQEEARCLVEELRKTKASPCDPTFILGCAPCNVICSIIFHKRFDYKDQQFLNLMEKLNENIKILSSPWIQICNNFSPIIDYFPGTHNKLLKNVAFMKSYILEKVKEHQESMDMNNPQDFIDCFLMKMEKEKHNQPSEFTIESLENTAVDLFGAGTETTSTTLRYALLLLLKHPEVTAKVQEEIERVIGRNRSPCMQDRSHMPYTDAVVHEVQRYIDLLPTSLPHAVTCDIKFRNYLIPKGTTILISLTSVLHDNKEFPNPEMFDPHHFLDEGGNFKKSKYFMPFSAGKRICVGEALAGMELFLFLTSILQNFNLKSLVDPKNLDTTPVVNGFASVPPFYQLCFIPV
# Chain of Melanin-concentrating hormone receptor 1 (Q99705 whole entry): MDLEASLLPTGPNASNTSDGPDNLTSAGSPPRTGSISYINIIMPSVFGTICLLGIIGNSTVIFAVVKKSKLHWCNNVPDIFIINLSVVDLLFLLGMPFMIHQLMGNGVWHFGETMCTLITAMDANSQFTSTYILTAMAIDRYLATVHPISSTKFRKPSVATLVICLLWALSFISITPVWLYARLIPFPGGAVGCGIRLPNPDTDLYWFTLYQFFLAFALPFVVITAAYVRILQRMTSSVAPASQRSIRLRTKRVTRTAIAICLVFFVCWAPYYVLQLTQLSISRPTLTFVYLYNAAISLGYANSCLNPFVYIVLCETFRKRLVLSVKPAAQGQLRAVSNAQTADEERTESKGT
# Chain of Peroxisome proliferator-activated receptor gamma/Nuclear receptor coactivator 3 (P37231 whole entry): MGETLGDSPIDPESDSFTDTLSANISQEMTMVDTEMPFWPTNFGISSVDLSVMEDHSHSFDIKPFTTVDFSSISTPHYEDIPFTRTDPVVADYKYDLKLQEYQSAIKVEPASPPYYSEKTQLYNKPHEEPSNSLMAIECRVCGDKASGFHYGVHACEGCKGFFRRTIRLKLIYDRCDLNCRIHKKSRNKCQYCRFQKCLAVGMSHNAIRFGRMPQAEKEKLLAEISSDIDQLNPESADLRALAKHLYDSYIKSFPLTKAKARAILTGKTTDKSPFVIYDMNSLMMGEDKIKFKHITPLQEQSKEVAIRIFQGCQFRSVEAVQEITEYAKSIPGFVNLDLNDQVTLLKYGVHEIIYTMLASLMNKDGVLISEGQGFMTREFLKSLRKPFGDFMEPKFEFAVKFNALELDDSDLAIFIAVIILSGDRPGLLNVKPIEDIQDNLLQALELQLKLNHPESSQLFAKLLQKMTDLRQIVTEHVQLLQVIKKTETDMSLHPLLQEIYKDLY
# Chain of Peroxisome proliferator-activated receptor gamma/Nuclear receptor coactivator 3 (Q9Y6Q9 whole entry, further chain): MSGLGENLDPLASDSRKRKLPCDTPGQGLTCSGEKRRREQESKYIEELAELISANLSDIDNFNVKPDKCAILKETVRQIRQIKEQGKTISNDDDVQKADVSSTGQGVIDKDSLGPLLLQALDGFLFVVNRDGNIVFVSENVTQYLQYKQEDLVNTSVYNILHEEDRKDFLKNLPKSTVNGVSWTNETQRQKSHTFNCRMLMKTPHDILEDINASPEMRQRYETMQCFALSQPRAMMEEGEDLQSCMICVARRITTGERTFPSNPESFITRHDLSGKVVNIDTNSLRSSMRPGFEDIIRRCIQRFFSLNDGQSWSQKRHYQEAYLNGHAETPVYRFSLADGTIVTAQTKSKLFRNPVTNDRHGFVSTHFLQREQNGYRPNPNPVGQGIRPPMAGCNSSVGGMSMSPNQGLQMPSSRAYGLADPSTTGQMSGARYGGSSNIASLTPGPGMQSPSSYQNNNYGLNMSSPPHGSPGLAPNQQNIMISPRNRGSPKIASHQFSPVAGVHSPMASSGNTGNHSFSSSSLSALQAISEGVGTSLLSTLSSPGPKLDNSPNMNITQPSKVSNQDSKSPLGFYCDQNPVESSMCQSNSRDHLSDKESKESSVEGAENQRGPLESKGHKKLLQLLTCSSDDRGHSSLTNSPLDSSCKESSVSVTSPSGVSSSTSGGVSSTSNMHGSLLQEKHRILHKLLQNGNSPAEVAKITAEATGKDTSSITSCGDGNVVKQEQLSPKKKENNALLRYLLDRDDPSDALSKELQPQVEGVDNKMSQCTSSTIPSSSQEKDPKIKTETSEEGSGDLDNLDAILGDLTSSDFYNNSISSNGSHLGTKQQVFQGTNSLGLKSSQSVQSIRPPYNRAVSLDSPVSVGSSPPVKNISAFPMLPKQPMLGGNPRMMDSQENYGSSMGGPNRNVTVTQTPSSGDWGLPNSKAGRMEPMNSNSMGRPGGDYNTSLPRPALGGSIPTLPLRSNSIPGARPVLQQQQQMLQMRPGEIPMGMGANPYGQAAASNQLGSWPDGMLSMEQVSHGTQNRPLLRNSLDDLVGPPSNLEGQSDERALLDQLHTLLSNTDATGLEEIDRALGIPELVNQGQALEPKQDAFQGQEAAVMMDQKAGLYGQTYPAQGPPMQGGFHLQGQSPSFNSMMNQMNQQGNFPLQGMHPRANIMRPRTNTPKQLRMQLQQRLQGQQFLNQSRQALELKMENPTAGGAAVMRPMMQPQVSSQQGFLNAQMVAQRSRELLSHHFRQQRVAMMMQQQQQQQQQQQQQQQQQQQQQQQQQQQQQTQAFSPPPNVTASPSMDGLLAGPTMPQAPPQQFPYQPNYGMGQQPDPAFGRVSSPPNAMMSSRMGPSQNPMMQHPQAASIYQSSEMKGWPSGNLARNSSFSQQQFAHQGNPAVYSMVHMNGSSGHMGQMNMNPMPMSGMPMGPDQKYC
# Chain of Peroxisome proliferator-activated receptor gamma/Nuclear receptor coactivator 1 (P37231 whole entry): as the sequence (P37231 whole entry) above
# Chain of Peroxisome proliferator-activated receptor gamma/Nuclear receptor coactivator 1 (Q15788 whole entry, further chain): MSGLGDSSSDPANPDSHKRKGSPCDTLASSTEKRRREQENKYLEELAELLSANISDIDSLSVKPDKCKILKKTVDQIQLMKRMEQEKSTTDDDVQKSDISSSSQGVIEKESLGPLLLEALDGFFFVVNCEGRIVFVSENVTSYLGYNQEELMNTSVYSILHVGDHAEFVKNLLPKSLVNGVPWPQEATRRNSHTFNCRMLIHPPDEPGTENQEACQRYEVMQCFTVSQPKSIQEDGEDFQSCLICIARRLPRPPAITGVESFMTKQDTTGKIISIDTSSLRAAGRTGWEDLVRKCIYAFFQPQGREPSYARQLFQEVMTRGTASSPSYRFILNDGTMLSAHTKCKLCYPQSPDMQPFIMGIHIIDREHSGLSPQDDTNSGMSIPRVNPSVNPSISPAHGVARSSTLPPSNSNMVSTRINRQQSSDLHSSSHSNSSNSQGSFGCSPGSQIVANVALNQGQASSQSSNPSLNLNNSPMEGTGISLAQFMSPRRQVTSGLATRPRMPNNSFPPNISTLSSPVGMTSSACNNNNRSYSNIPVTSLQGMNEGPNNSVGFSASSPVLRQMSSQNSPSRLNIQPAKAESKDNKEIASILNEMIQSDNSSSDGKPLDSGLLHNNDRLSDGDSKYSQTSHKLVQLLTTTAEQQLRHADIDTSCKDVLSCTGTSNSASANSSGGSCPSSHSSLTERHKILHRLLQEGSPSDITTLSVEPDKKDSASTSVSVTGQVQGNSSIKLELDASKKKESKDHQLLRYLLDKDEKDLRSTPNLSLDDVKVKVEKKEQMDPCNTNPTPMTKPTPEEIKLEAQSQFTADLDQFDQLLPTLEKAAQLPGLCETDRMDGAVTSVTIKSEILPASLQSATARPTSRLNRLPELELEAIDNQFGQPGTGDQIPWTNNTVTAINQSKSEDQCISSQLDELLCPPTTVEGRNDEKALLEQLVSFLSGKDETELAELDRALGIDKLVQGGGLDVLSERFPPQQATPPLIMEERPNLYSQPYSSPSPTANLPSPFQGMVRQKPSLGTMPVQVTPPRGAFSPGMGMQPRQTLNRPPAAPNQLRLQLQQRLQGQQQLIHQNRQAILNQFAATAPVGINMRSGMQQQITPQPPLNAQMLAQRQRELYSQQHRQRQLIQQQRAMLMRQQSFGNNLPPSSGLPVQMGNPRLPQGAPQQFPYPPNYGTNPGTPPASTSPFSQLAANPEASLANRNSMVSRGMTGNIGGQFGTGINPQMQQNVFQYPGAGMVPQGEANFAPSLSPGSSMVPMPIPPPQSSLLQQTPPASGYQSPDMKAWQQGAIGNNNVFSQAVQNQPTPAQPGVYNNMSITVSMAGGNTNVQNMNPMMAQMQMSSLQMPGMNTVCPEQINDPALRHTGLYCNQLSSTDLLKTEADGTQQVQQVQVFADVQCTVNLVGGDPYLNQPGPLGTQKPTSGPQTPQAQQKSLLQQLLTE
structure (smiles),measurement,setting,value
COc1ccccc1N(C(=O)c1ccco1)C(C(=O)NC1CCCCC1)c1cc(OC)c(OC)c(OC)c1 (stereo not drawn),IC50,[1],> 43.8 µM (not active)
same,IC50,[2],> 43.8 µM (not active)
COC(=O)NC(/C(C(=O)OC)=C(\C)NCc1ccccc1)c1ccc(Cl)cc1 (stereo not drawn),AC50,Cytochrome P450 2C9,6.31 µM (inconclusive)
same,AC50,Cytochrome P450 2D6,5.01 µM (inconclusive)
S=C(NCc1ccc(Cl)cc1Cl)Nc1ccccc1,EC50,[3],> 79.4 µM (not active)
same,EC50,[4],> 79.4 µM (not active)
same,EC50,[5],67.3 µM (not active)
CCOC(=O)OCC1OC(c2ccc(C(C)=O)cc2)C=CC1Oc1ccc(-c2ccccc2)cc1 (stereo not drawn),AC50,Cytochrome P450 2C9,5.01 µM (inconclusive)
Cc1ccc(-c2nn(CCC(=O)O)cc2/C=C\C(=O)c2ccc(Br)cc2)cc1,EC50,Streptokinase A,2.33 µM (active)
same,EC50,Streptococcus [6],25.4 µM (active)
same,IC50,Leucine aminopeptidase,34 µM (active)
same,EC50,[7],4.41 µM (active)
same,EC50,Streptococcus [8],> 50 µM (not active)
